Legend:
PTPs = assay: Direct comparison of R groups against the PTPs; assay type: biochemical, human; conditions: change of the R group from CF3SO2NH—
Experimental: (§1) The effect of the compounds on PTP was evaluated at 25° C. using pNPP or FDP as substrate. PTP was pre-incubated for fifteen minutes with various concentrations of compound. Substrate was then added at a fixed concentration (usually equal to the Km previously calculated). After 10 minutes, NaOH was added to stop the reaction. The hydrolysis of pNPP was followed at 410 nm on the Biotek Powerwave 200 microplate scanning spectrophotometer. The percent inhibition was calculated as follows: Percent Inhibition=[(control signal−compound signal)/control signal] ×100%. The IC50 was then determined by interpolation of a percent inhibition versus compound concentration plot.

PTP ZETA = target: T1, PTP ZETA (Homo sapiens, UniProt P23471); assay: PTP IC50 assay, pNPP or FDP as substrate; assay type: biochemical; conditions: 25° C.
T1 construct: made in house; host or cells: E. coli BL-21 (pGEX 6P-1)
T1 sequence (P23471 1667-2028 limits assumed): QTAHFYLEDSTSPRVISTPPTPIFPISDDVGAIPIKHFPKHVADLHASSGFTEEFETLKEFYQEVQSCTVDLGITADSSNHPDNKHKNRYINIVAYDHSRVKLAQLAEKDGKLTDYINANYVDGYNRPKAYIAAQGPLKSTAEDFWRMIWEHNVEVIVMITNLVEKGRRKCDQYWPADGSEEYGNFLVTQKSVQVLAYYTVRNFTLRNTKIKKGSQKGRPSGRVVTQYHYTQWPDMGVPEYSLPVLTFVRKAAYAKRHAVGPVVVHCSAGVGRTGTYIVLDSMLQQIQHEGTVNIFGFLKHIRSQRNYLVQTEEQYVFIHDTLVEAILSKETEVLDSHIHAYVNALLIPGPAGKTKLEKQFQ
Experimental: (§2) The following in vitro assay procedure is preferred to determine the level of activity and effect of the different compounds of the present invention on one or more of the PTPs. Similar assays can be designed along the same lines for any PTP using techniques well known in the art.
(§3) The catalytic assays described herein are performed in a 96-well format. The general procedure begins with the determination of PTP optimal pH using a three-component buffer system that minimizes ionic strength variations across a wide range of buffer pH. Next, the Michaelis-Menten constant, or Km, is determined for each specific substrate-PTP system. This Km value is subsequently used as the substrate reaction concentration for compound screening. Finally, the test PTP is exposed to varying concentrations of compound for fifteen minutes and allowed to react with substrate for ten minutes. The results are plotted as percent inhibition versus compound concentration and the IC50 interpolated from the plot.
(§4) All assays were performed using pNPP or FDP as substrate. The optimum pH was determined for each PTP used.
(§5) PTPase activity was assayed at 25° C. in a 100-μl reaction mixture containing an appropriate concentration of pNPP or FDP as substrate. The reaction was initiated by addition of the PTP and quenched after 10 min by addition of 50 μl of IN NaOH. The non-enzymatic hydrolysis of the substrate was corrected by measuring the control without the addition of the enzyme. The amount of p-nitrophenol produced was determined from the absorbance at 410 nm. To determine the kinetic parameter, Km, the initial velocities were measured at various substrate concentrations and the data were fitted to the Michaelis equation where velocity=(Vmax*[S])/(Km+[S]), and [S]=substrate reaction concentration.
as §1
(§6) Plasmids designed for bacterial GST-PTP fusion protein expression were derived by insertion of PCR-generated human PTP fragments into pGEX vectors (Pharmacia Biotech). Several of these constructs were then used to subclone phosphatases into pFastBac-1for expression in Sf-9 insect cells. Oligonucleotides used for the initial amplification of PTP genes are shown below. The cDNAs were prepared using the Gilbo BRL superscript preamplification system on RNAs purchased from Clontech.
The PTP Zeta cDNA was amplified from human placenta single strand cDNA (Clontech RNA) using the following oligonucleotides 5′oligo: 5′-[…]-3′ (SEQ ID NO: 10) 3′oligo: 5′-[…]-3′ (SEQ ID NO: 11) and subsequently ligated into pGEX 6P-1 Eco RI/Xho I sites.

PTP PEST = target: T2, PTP PEST (Homo sapiens, UniProt Q05209); assay: PTP IC50 assay, pNPP or FDP as substrate; assay type: biochemical; conditions: 25° C.
T2 construct: made in house; host or cells: E. coli BL-21 (pGEX 6P-1)
T2 sequence (Q05209 1-343 limits assumed): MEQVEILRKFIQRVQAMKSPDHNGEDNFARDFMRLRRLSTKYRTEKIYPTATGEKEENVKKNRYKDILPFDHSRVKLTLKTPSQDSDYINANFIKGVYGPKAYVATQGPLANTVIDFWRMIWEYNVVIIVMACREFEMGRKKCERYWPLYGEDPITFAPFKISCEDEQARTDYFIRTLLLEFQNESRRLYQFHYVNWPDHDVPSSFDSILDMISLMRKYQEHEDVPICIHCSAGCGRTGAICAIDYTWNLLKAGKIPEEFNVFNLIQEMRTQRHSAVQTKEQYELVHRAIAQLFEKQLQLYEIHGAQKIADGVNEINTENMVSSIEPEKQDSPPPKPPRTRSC
Experimental: as §2, §3, §4, §5, §1, §6
The PTP PEST CDNA was amplified from an HeLa cDNA library (Clonetech RNA) using the following oligonucleotides: 5′oligo: 5′-[…]-3′ (SEQ ID NO: 14) 3′oligo: 5′-[…]-3′ (SEQ ID NO: 15) It was subsequently ligated into the Eco RI/Xho I sites of pGEX 6P-1.

PTP DEP1 = target: T3, PTP DEP1 (Homo sapiens, UniProt Q12913); assay: PTP IC50 assay, pNPP or FDP as substrate; assay type: biochemical; conditions: 25° C.
T3 construct: GST-fusion proteins encompassing the entire cytoplasmic domain was done by PCR; made in house; host or cells: E. coli BL-21 (pGEX 2T)
T3 sequence (Q12913 997-1337 limits assumed): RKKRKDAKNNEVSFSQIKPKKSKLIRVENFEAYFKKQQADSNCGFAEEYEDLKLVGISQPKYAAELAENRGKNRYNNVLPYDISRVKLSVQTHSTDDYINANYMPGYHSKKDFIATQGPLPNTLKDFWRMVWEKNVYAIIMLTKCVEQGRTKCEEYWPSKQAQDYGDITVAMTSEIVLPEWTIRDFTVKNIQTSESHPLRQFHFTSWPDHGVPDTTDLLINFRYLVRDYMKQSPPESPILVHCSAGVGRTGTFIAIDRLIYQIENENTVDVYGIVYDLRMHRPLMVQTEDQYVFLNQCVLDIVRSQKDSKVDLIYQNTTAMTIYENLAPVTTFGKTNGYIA
Experimental: as §2, §3, §4, §5, §1, §6
The full length DEP1 cDNA was isolated from a human mammary cDNA library (Clontech). The construction of GST-fusion proteins encompassing the entire cytoplasmic domain was done by PCR using the following oligos; 5′oligo: 5′-[…]-3′ (SEQ ID NO: 20) 3′oligo: 5′-[…]-3′ (SEQ ID NO: 21) It was subsequently ligated into the Eco RI/Bam H1 sites of pGEX 2T.

| Structure (SMILES) | IC50 (PTP ZETA) [µM] | IC50 (PTP PEST) [µM] | IC50 (PTP DEP1) [µM] | activity relative to the CF3SO2NH— compound (PTPs) |
| --- | --- | --- | --- | --- |
| CS(=O)(=O)Nc1ccc(Oc2ccc(Oc3ccc(NS(C)(=O)=O)cc3)cc2)cc1 [CH3SO2NH—] | – | – | – | dramatic decrease in activity |
| O=S(=O)(Nc1ccc(CCc2ccc(NS(=O)(=O)C(F)(F)F)cc2)cc1)C(F)(F)F [Example 66, 1,2-Bis(4-trifluoromethylsulfonamidophenyl)ethane] | > 100 | 13.3 | > 100 | – |
| Cc1cc(NS(=O)(=O)C(F)(F)F)ccc1CCc1ccc(NS(=O)(=O)C(F)(F)F)cc1C [Example 67, 1,2-Bis(2-methyl-4-trifluoromethylsulfonamidophenyl)ethane] | > 100 | 10.5 | 85.6 | – |
| CC(C)(COc1ccc(NS(=O)(=O)C(F)(F)F)cc1)COc1ccc(NS(=O)(=O)C(F)(F)F)cc1 [Example 68, 1,3-Bis(4-trifluoromethylsulfonamidophenoxy)-2,2-dimethylpropane] | > 100 | 9.33 | 25 | – |
| O=S(=O)(Nc1ccc(OCCCOc2ccc(NS(=O)(=O)C(F)(F)F)cc2)cc1)C(F)(F)F [Example 69, 1,3-Bis(4-trifluoromethylsulfonamidophenoxy)propane] | > 100 | 7.86 | > 100 | – |
| O=S(=O)(Nc1ccc(OCCCCOc2ccc(NS(=O)(=O)C(F)(F)F)cc2)cc1)C(F)(F)F [Example 70, 1,4-Bis(4-trifluoromethylsulfonamidophenoxy)butane] | > 100 | 6.75 | 24.5 | – |
| Nc1ccc(Oc2ccc(Oc3ccc(N)cc3)cc2)cc1 [NH2] | – | – | – | complete loss of activity |

Further lines, with some results ahead:

| IC50 (PTP ZETA) [µM] | IC50 (PTP PEST) [µM] | IC50 (PTP DEP1) [µM] | Structure (SMILES) | activity relative to the CF3SO2NH— compound (PTPs) |
| --- | --- | --- | --- | --- |
| > 100 | > 100 | 24.2 | O=S(=O)(c1ccc(COCc2ccc(S(=O)(=O)C(F)(F)F)cc2)cc1)C(F)(F)F [Example 1, Bis (4-trifluoromethylsulfonylbenzyl) ether] | – |
| > 100 | 25.6 | 16.5 | O=S(=O)(c1ccc(COc2ccc(S(=O)(=O)C(F)(F)F)cc2)cc1)C(F)(F)F [Example 2, 4-Trifluoromethylsulfonylbenzyl 4-trifluoromethylsulfonylphenyl ether] | – |
| > 100 | > 100 | 40.9 | O=C(c1ccccc1)N(Cc1ccc(S(=O)(=O)C(F)(F)F)cc1)Cc1ccc(S(=O)(=O)C(F)(F)F)cc1 [Example 3, N,N-Bis(4-trifluoromethylsulfonylbenzyl)benzamide] | – |
| > 100 | > 100 | 26.1 | O=S(=O)(c1ccc(CCc2ccc(S(=O)(=O)C(F)(F)F)cc2)cc1)C(F)(F)F [Example 4, 1,2-Bis(4-trifluoromethylsulfonylphenyl)ethane] | – |
| > 100 | > 100 | > 100 | O=C(NCc1ccc(S(=O)(=O)C(F)(F)F)cc1)c1ccc(S(=O)(=O)C(F)(F)F)cc1 [Example 5, N-(4-Trifluoromethylsulfonylbenzyl)-4-trifluoromethylsulfonylbenzamide] | – |
| > 100 | > 100 | > 100 | O=C(NCc1ccc(S(=O)(=O)C(F)(F)F)cc1)c1ccccc1 [Example 6, N-(4-Trifluoromethylsulfonylbenzyl)benzamide] | – |
| 64.3 | 0.98 | 49 | O=S(=O)(Nc1ccc(Oc2ccc(Oc3ccc(NS(=O)(=O)C(F)(F)F)cc3)cc2)cc1)C(F)(F)F [Example 71, 1,4-Bis(4-trifluoromethylsulfonamidophenoxy)benzene] | – |

From US6596772B1, “Phosphate mimics and methods of treatment using phosphatase inhibitors” (Sugen, Inc., priority 1999, dated 2003)
